Experimental data reported in paper PMC6270420, “Antibacterial Activity of Salicylanilide 4-(Trifluoromethyl)benzoates” (Molecules, 2013).
Values after ≈ are worked out from the molar mass of the structure shown. Like-named read-outs stand apart in the source and are kept apart here.

Legend:
[1] = system: Mycobacterium avium 330/88; experiment: Antimycobacterial MIC micromethod; type: cell-based
[2] = molecular target: T1, mycobacterial isocitrate lyase (ICL1, Rv0467) (Mycobacterium tuberculosis, UniProt P9WKK7); experiment: Isocitrate lyase inhibition assay (ICL1); type: biochemical, Mycobacterium tuberculosis H37Rv; conditions: 10 μmol/L; read-out: % ICL inhibition at 10 μmol/L (± standard deviation)
T1 construct: His tag (from pET-28b(+)); made in house; host or cells: E. coli BL21(DE3), pET-28b(+) plasmid
T1 sequence (P9WKK7 1-428): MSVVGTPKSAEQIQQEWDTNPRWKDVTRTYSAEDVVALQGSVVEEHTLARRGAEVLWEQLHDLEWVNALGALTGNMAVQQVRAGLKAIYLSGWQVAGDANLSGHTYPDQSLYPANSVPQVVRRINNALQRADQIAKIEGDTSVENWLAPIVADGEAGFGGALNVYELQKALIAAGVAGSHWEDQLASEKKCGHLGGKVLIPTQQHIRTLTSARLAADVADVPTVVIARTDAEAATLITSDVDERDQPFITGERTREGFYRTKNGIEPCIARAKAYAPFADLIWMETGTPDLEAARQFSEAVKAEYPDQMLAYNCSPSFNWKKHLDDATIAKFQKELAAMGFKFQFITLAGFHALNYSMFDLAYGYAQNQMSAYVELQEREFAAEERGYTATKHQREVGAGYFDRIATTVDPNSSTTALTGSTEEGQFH

[3] = system: Mycobacterium kansasii 235/80; experiment: Antimycobacterial MIC micromethod; type: cell-based; conditions: read-out: MIC M. kansasii 235/80
[4] = system: Gram-positive cocci including MRSA; experiment: Antibacterial microdilution, summary for Gram-positive cocci; type: cell-based; conditions: Staphylococcus aureus, read-out: MICs against Gram-positive cocci
Protocol: (§1) The in vitro antibacterial activity was assayed against eight Gram-positive and Gram-negative strains: Staphylococcus aureus CCM 4516/08, methicillin-resistant Staphylococcus aureus H 5996/08 (MRSA), Staphylococcus epidermidis H 6966/08, Enterococcus sp. J 14365/08; Escherichia coli CCM 4517, Klebsiella pneumoniae D 11750/08, ESBL-positive Klebsiella pneumoniae J 14368/08, and Pseudomonas aeruginosa CCM 1961.
(§2) The microdilution broth method modified according to standard M07-A07 in Mueller-Hinton broth (HiMedia Laboratories, Mumbai, India) adjusted to pH 7.4 (±0.2) was used. The tested compounds were dissolved in DMSO to the final concentrations ranging from […]. Benzylpenicillin (penicillin G) was used as a comparative drug. Bacterial inoculum in sterile water was prepared to match 0.5 McFarland scale ([…]). The minimum inhibitory concentrations were assayed as 90% (IC90) or higher reduction of growth when compared to the control. The determination of results was performed visually and spectrophotometrically (at 540 nm). The values of MICs were determined after 24 and 48 h of incubation in the darkness at 35 °C (±0.1) in a humid atmosphere.

[5] = system: M. kansasii 6509/96 (clinically isolated strain); experiment: Antimycobacterial MIC micromethod; type: cell-based; conditions: Mycobacterium kansasii, read-out: MIC M. kansasii 6509/96
[6] = system: Staphylococcus epidermidis H 6966/08; experiment: Antibacterial microdilution broth method; type: cell-based; conditions: read-out: MIC/IC90 S. epidermidis H 6966/08
Protocol: as §1, §2

[7] = system: methicillin-resistant Staphylococcus aureus H 5996/08 (MRSA); experiment: Antibacterial microdilution broth method; type: cell-based; conditions: read-out: MIC/IC90 MRSA H 5996/08
Protocol: as §1, §2

[8] = system: Enterococcus sp. J 14365/08; experiment: Antibacterial microdilution broth method; type: cell-based; conditions: read-out: MIC/IC90 Enterococcus sp. J 14365/08
Protocol: as §1, §2

[9] = system: Staphylococcus aureus CCM 4516/08; experiment: Antibacterial microdilution broth method; type: cell-based; conditions: read-out: MIC/IC90 S. aureus CCM 4516/08
Protocol: as §1, §2

[10] = system: Escherichia coli CCM 4517; experiment: Antibacterial microdilution broth method; type: cell-based; conditions: read-out: MIC/IC90 E. coli CCM 4517
Protocol: as §1, §2

[11] = system: Mycobacterium tuberculosis 331/88 (H37Rv); experiment: Antimycobacterial MIC micromethod, Šula's medium; type: cell-based; conditions: read-out: MIC Mtb. 331/88
[12] = system: Mtb. 9449/2006; experiment: microbe, parasite or virus in culture; type: cell-based; conditions: Mycobacterium tuberculosis, read-out: MIC Mtb. 9449/2006
[13] = system: Mtb. Praha 131 (XDR-TB); experiment: microbe, parasite or virus in culture; type: cell-based; conditions: Mycobacterium tuberculosis, read-out: MIC Mtb. Praha 131 (XDR-TB)
[14] = system: Mtb. Praha 1; experiment: microbe, parasite or virus in culture; type: cell-based; conditions: Mycobacterium tuberculosis, read-out: MIC Mtb. Praha 1
[15] = system: Mtb. 234/2005; experiment: microbe, parasite or virus in culture; type: cell-based; conditions: Mycobacterium tuberculosis, read-out: MIC Mtb. 234/2005
[16] = system: HepG2 cells; experiment: Cytotoxicity evaluation (CellTiter 96 MTS); type: cell-based, human; conditions: Homo sapiens, HepG2, 24 h, read-out: IC50 HepG2
Protocol: Seven esters and their parent salicylanilides with the most robust antimicrobial activity were tested for cytotoxicity in the human hepatocellular liver carcinoma cell line HepG2 (passages 21–24; ECACC, Salisbury, UK) using a standard colorimetric method measuring a tetrazolium salt reduction (CellTiter(R) 96 AQueous One Solution Assay, Promega G3580, Madison, WI, USA).
The cells were routinely cultured in Minimum Essentials Eagle Medium (Sigma-Aldrich, Darmstadt, Germany) supplemented with 10% foetal bovine serum (PAA; Biotech, Prague, Czech Republic), 1% of L-glutamine solution (Sigma-Aldrich), and non-essential amino acids solution (Sigma-Aldrich) in a humidified atmosphere containing 5% CO2 at 37 °C. For subculturing, the cells were harvested after trypsin/EDTA (Sigma-Aldrich) treatment at 37 °C. The cells treated with the tested substances were used as experimental groups. Untreated HepG2 cells were used as control groups.
The cells were seeded in density 1 × 10^4 cells per well in a 96-well plate with microscopic control. Next day, the cells were treated with each of the tested substances. […] The most of the tested compounds were prepared in incubation concentrations of 0.01–20 µM in triplicates. 4-(Trifluoromethyl)benzoic acid was applied in the concentrations of 10–4,000 µM in triplicates. The following types of controls were included: determination of 100% viability and 0% viability (the cells treated by 10% DMSO), no cell control and vehiculum controls. These checking samples were prepared in triplicates.
The treated cells were incubated together with controls at 37 °C for 24 h in 5% CO2 atmosphere. After this time reagent from the kit CellTiter 96 AQueous One Solution Cell Proliferation Assay was added. The CellTiter 96 assay is based on the reduction of tetrazolium salt MTS [3-(4,5-dimethylthiazol-2-yl)-5-(3-carboxymethoxyphenyl)-2-(4-sulfophenyl)-2H-tetrazolium] to water-soluble formazan dye by metabolically active cells. The reduction of the reagent is attributed to availability of NADH or NADPH. The decline in levels of these metabolically important compounds in the cell causes that the production of formazan is reduced. The tested plate was incubated for 2 h at 37 °C and 5% CO2 and after this time, the absorbance was recorded at 490 nm using a 96-well plate reader (TECAN, Infinite M200, Grödig, Austria).
The results were expressed as inhibitory concentration which is necessary to inhibit cell viability to 50% from the maximal (control) viability (IC50). A standard toxicological parameter IC50 was calculated in each of the tested substances using GraphPad Prism software (version 5.02; GraphPad Software Inc., San Diego, CA, USA).

[17] = system: Mtb. 53/2009; experiment: microbe, parasite or virus in culture; type: cell-based; conditions: Mycobacterium tuberculosis, read-out: MIC Mtb. 53/2009
[18] = system: Mtb. 7357/1988; experiment: microbe, parasite or virus in culture; type: cell-based; conditions: Mycobacterium tuberculosis, read-out: MIC Mtb. 7357/1988

SMILES | MIC ([1]; 330/88, 336 h, 14 d) | MIC ([1]; 330/88, 504 h, 21 d) | inhibition at 10 µM [2] | MIC ([3]; 235/80, 168 h, 7 d) | MIC ([3]; 235/80, 336 h, 14 d) | MIC ([3]; 235/80, 504 h, 21 d) | MIC [4] | MIC ([5]; 168 h, 7 d) | MIC ([5]; 336 h, 14 d) | MIC ([5]; 504 h, 21 d) | MIC ([6]; H6966/08, 24 h) | MIC ([6]; H6966/08, 48 h) | MIC ([7]; 24 h) | MIC ([7]; 48 h) | MIC ([8]; SP.J14365/08, 24 h) | MIC ([8]; SP.J14365/08, 48 h) | MIC ([9]; CCM4516, 24 h) | MIC ([9]; CCM4516, 48 h) | MIC ([11]; 336 h, 14 d) | MIC ([11]; 504 h, 21 d) | also measured
O=C(Oc1cc(Cl)ccc1C(=O)Nc1cccc(Br)c1)c1ccc(C(F)(F)F)cc1 [1h] | 8 µM (≈ 3.99 µg/mL) | 16 µM (≈ 7.98 µg/mL) | ≥ 20% | 4 µM (≈ 1.99 µg/mL) | 8 µM (≈ 3.99 µg/mL) | 8 µM (≈ 3.99 µg/mL) | < 1 µM | 2 µM (≈ 0.997 µg/mL) | 8 µM (≈ 3.99 µg/mL) | 8 µM (≈ 3.99 µg/mL) | 0.49 µM (≈ 0.244 µg/mL) | 0.98 µM (≈ 0.489 µg/mL) | 0.49 µM (≈ 0.244 µg/mL) | 0.98 µM (≈ 0.489 µg/mL) | 31.2 µM (≈ 15.6 µg/mL) | 250 µM (≈ 125 µg/mL) | 0.98 µM (≈ 0.489 µg/mL) | 0.98 µM (≈ 0.489 µg/mL) | 4 µM (≈ 1.99 µg/mL) | 8 µM (≈ 3.99 µg/mL) | MIC ([10]; CCM4517, 24 h): > 500 µM; MIC ([10]; CCM4517, 48 h): > 500 µM
O=C(Oc1ccc(Cl)cc1C(=O)Nc1cccc(F)c1)c1ccc(C(F)(F)F)cc1 [1k] | 16 µM (≈ 7 µg/mL) | 32 µM (≈ 14 µg/mL) | ≥ 20% | 8 µM (≈ 3.5 µg/mL) | 16 µM (≈ 7 µg/mL) | 16 µM (≈ 7 µg/mL) | < 1 µM | 8 µM (≈ 3.5 µg/mL) | 16 µM (≈ 7 µg/mL) | 16 µM (≈ 7 µg/mL) | 3.9 µM (≈ 1.71 µg/mL) | 3.9 µM (≈ 1.71 µg/mL) | 0.98 µM (≈ 0.429 µg/mL) | 1.95 µM (≈ 0.854 µg/mL) | 31.2 µM (≈ 13.7 µg/mL) | > 250 µM | 3.9 µM (≈ 1.71 µg/mL) | 3.9 µM (≈ 1.71 µg/mL) | 8 µM (≈ 3.5 µg/mL) | 8 µM (≈ 3.5 µg/mL) | MIC ([10]; CCM4517, 24 h): > 250 µM; MIC ([10]; CCM4517, 48 h): > 250 µM
O=C(Oc1cc(Cl)ccc1C(=O)Nc1ccc(Cl)c(Cl)c1)c1ccc(C(F)(F)F)cc1 [1f] | 2 µM (≈ 0.977 µg/mL) | 8 µM (≈ 3.91 µg/mL) | 17 ± 1.6% | 1 µM (≈ 0.489 µg/mL) | 2 µM (≈ 0.977 µg/mL) | 4 µM (≈ 1.95 µg/mL) |  | 1 µM (≈ 0.489 µg/mL) | 2 µM (≈ 0.977 µg/mL) | 4 µM (≈ 1.95 µg/mL) |  |  |  |  |  |  |  |  | 1 µM (≈ 0.489 µg/mL) | 2 µM (≈ 0.977 µg/mL) | MIC ([12]; 336 h): 2 µM (≈ 0.977 µg/mL); MIC ([12]; 504 h): 2 µM (≈ 0.977 µg/mL); MIC ([13]; 336 h): 1 µM (≈ 0.489 µg/mL); MIC ([13]; 504 h): 2 µM (≈ 0.977 µg/mL); MIC ([14]; 336 h): 1 µM (≈ 0.489 µg/mL); MIC ([14]; 504 h): 2 µM (≈ 0.977 µg/mL); MIC ([15]; 336 h): 1 µM (≈ 0.489 µg/mL); MIC ([15]; 504 h): 2 µM (≈ 0.977 µg/mL); IC50 [16]: 4.46 µM; MIC ([17]; 336 h): 2 µM (≈ 0.977 µg/mL); MIC ([17]; 504 h): 2 µM (≈ 0.977 µg/mL); MIC ([18]; 336 h): 2 µM (≈ 0.977 µg/mL); MIC ([18]; 504 h): 2 µM (≈ 0.977 µg/mL)
